Target: T1, Phospholipase A2 alpha (Crotalus adamanteus, UniProt P00623)
T1 sequence (P00623 whole entry): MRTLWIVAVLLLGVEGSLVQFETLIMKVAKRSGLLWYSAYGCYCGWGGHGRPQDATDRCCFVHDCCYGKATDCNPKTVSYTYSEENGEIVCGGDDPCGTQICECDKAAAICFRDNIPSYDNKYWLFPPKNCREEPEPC
Experiment: Inhibition of Crotalus adamanteus venom phospholipase A2 by fluorometric assay

Compound | IC50 [µM]
O=C(c1c[nH]c2ccc(O)cc12)c1nccc2c1[nH]c1ccc(O)cc12 [HYRTIOSULAWESINE] | 14
CC1=C(CC/C(C)=C/CCC2=CC[C@H](C3=CC(=O)O[C@H]3O)O[C@H]2O)C(C)(C)CCC1 [MANOALIDE] | 0.4

Source: ChEMBL document CHEMBL1158119, “Hyrtiazepine, an azepino-indole-type alkaloid from the Red Sea marine sponge Hyrtios erectus” (J Nat Prod, 2006)
